Reference: patent US9845482B2, “Compositions and methods for enhancing bioenergetic status in female germ cells” (The General Hospital Corporation, priority 2011, dated 2017)

Legend:
Type in all cases: in vivo
[1] = test system: aged female mice (C57BL/6); assay: Dietary supplementation of aged female mice: oocyte yield, maturation and quality after superovulation; conditions: for percentage of mature, metaphase II oocytes retrieved following superovulation / quality of oocytes in aged mice: compared to age appropriate controls (Hist 12 M); for oocyte yield: diet for 3 months from 8.5 months of age, apigenin 0.5 g/kg, luteolin 0.5 g/kg, SRT-1720 2 g/kg, superovulation
Source text: Yield, maturational status and post-fertilization developmental competency of oocytes obtained from 12-month-old (aged) female mice returned to an ad-libitum (AL) diet for 1 month following 7.5 months of dietary CR (CR-AL-fed) initiated in a stepwise fashion at 3.5 months of age were first evaluated. This protocol was based on prior work showing that female mice maintained on CR during adulthood continue to breed and deliver offspring into advanced ages after their return to an AL diet (Selesniemi et al. 2008 Aging Cell 7:622-629). Mice were superovulated by injection of pregnant mare serum gonadotropin (PMSG, 10 IU; Sigma Aldrich Corporation, St. Louis, Mo., USA) followed by human chorionic gonadotropin (hCG, 10 IU; Sigma Aldrich Corporation, St. Louis, Mo., USA) 46-48 hours later. Oocytes were collected from oviducts 15-16 hours after hCG injection, denuded of cumulus cells using hyaluronidase (Irvine Scientific, Santa Ana, Calif., USA), washed with human tubal fluid (HTF; Irvine Scientific, Santa Ana, Calif., USA) supplemented with BSA (fraction V, fatty acid-free; Sigma Aldrich Corporation, St. Louis, Mo., USA), and classified as MII (first polar body in perivitelline space), maturation arrested (germinal vesicle breakdown with no polar body extrusion, or germinal vesicle intact), or degenerated.
(§1) Female mice (8 months old, strain C57BL/6) were maintained on a 12:12 light dark cycle and provided ad-libitum access to water and food. Conditions within rooms were maintained at 21°±1° C. with 50%±20% relative humidity. Mice were placed on the experimental diets at 8.5 months of age and were maintained for 3 months on the diets. All diets were custom made, ordered from Research Diets: OpenStandard Diet (20 kcal % Protein, 15 kcal % Fat and 65 kcal % Carbohydrate) and the experimental groups consisted of regular OpenStandard Diet, OpenStandard Diet+Apigenin at 0.5 g/kg of body weight, OpenStandard Diet+Luteolin at 0.5 g/kg, and OpenStandard Diet+SRT-1720 at 2 g/kg. Food intake was measured weekly and average weight gain was assessed every two weeks. Each experimental group consisted of 12 randomly allocated mice. When mice were euthanized an additional group of 3-month old C57BL/6 females (3 M) were used as positive controls. In all groups, oocyte numbers were assessed following hormonal stimulation for superovulation.
Because of the extremely low yield of oocytes from the aged control females, historical data for oocyte yield from 12-month-old C57BL/6 females (referred to as “Hist 12 M”; from Selesniemi et al., Proc Natl Acad Sci USA. 2011 July 26; 108(30): 12319-12324) can be used as an additional reference point for an aged control group.
In FIG. 45A, the percentage of oocytes assessed at metaphase II is shown. In FIG. 45B, the percentage of oocytes arrested at the germinal vesicle (immature) stage is shown. In FIG. 45C, the percentage of atretic (dead) oocytes is shown.

[2] = test system: oocytes of aged female mice (C57BL/6); assay: Dietary supplementation of aged female mice: mitochondrial distribution in oocytes; conditions: for percentage of oocytes exhibiting abnormal mitochondrial clustering (change): compared to Hist 12 M; for abnormal mitochondrial distribution, present in % of oocytes: diet for 3 months, apigenin 0.5 g/kg, luteolin 0.5 g/kg, SRT-1720 2 g/kg
Experimental: Whether mitochondrial aggregation, which has been linked to the decline in oocyte quality with advancing age (Tarín et al. Biol Reprod 2001 65:141-150), was affected by caloric intake was assessed. Oocytes were denuded of cumulus cells, incubated in MitoTracker Red CMRox (Life Technologies), and processed for microscopic analysis. Levels of ATP in individual MII oocytes were determined using a commercially available bioluminescent assay kit under the manufacturer's specifications (Sigma Aldrich Corporation, St. Louis, Mo., USA).
as §1
(§2) Methods for determining spindle abnormalities and chromosomal misalignment are described above in Example 8. Abnormal mitochondrial distribution was determined to be present in 16.13% of oocytes from 3 M mice, 46% of oocytes from Hist 12 M mice, 7.7% of oocytes following supplementation with apigenenin, 12% of oocytes following supplementation with luteolin and 6.9% of oocytes following supplementation with SRT-1720. Spindle abnormalities were determined to be present in 18.3% of oocytes in 3 M mice, 60% of oocytes in Hist 12 M mice, 32% of oocytes following supplementation with apigenenin, 32% of oocytes following supplementation with luteolin and 32.8% of oocytes following supplementation with SRT-1720. Chromosomal misalignment was determined to be present 18.3% of oocytes in 3 M mice, 62% of oocytes in Hist 12 M mice, 44% of oocytes from mice supplemented with apigenenin, 40% of oocytes following supplementation with luteolin and 40.9% of oocytes following supplementation with SRT-1720.

[3] = test system: MII oocytes of aged female mice (C57BL/6); assay: Dietary supplementation of aged female mice: spindle abnormalities and chromosomal misalignment in MII oocytes; conditions: for chromosomal misalignment in MII oocytes (change) / percentage of spindle abnormalities in MII oocytes (change): compared to Hist 12 M; for chromosomal misalignment, present in % of oocytes / spindle abnormalities, present in % of oocytes: diet for 3 months, apigenin 0.5 g/kg, luteolin 0.5 g/kg, SRT-1720 2 g/kg
Experimental: Confocal analysis of α-tubulin and DNA distribution were examined. Superovulated oocytes were denuded of cumulus cells, briefly incubated in Acidified Tyrode's Solution (Irvine Scientific, Santa Ana, Calif., USA) to soften the zona pellucida, and immunostained using mouse anti-α-tubulin antibody (Sigma Aldrich Corporation, St. Louis, Mo., USA) followed by goat anti-mouse IgG conjugated with Alexa Fluor-488 (Life Technologies, Carlsbad, Calif.). Oocytes were mounted using Vectashield containing propidium iodide (PI; Vector Laboratories) and analyzed by confocal microscopy.
as §1, §2

## O=c1cc(-c2ccc(O)cc2)oc2cc(O)cc(O)c12 [apigenin, 5,7-Dihydroxy-2-(4-hydroxyphenyl)-4H-1-benzopyran-4-one]
[1]
  percentage of mature, metaphase II oocytes retrieved following superovulation: do not affect
  quality of oocytes in aged mice: improve the quality of oocytes
  oocyte yield: increase oocyte yield
[2]
  percentage of oocytes exhibiting abnormal mitochondrial clustering (change): reduced
  abnormal mitochondrial distribution, present in % of oocytes: 7.7%
[3]
  chromosomal misalignment in MII oocytes (change): reduced chromosomal misalignment
  percentage of spindle abnormalities in MII oocytes (change): reduced percentage of spindle abnormalities
  chromosomal misalignment, present in % of oocytes: 44%
  spindle abnormalities, present in % of oocytes: 32%

## O=C(Nc1ccccc1-c1cn2c(CN3CCNCC3)csc2n1)c1cnc2ccccc2n1 [SRT-1720, N-[2[3-(piperazin-1-ylmethyl)imidazo[2,1-b][1,3]thiazol-6-yl]phenyl]quinoxaline-2-carboxamide]
[1]
  percentage of mature, metaphase II oocytes retrieved following superovulation: do not affect
  quality of oocytes in aged mice: improve the quality of oocytes
  oocyte yield: increase oocyte yield
[2]
  percentage of oocytes exhibiting abnormal mitochondrial clustering (change): reduced
  abnormal mitochondrial distribution, present in % of oocytes: 6.9%
[3]
  chromosomal misalignment in MII oocytes (change): reduced chromosomal misalignment
  percentage of spindle abnormalities in MII oocytes (change): reduced percentage of spindle abnormalities
  chromosomal misalignment, present in % of oocytes: 40.9%
  spindle abnormalities, present in % of oocytes: 32.8%

## O=c1cc(-c2ccc(O)c(O)c2)oc2cc(O)cc(O)c12 [luteolin, 2-(3,4-Dihydroxyphenyl)-5,7-dihydroxy-4-chromenone]
[1]
  percentage of mature, metaphase II oocytes retrieved following superovulation: do not affect
  quality of oocytes in aged mice: improve the quality of oocytes
  oocyte yield: increase oocyte yield
[2]
  percentage of oocytes exhibiting abnormal mitochondrial clustering (change): reduced
  abnormal mitochondrial distribution, present in % of oocytes: 12%
[3]
  chromosomal misalignment in MII oocytes (change): reduced chromosomal misalignment
  percentage of spindle abnormalities in MII oocytes (change): reduced percentage of spindle abnormalities
  chromosomal misalignment, present in % of oocytes: 40%
  spindle abnormalities, present in % of oocytes: 32%
